Broadly, the IC50 is the concentration needed to halve the response being measured.

Read-outs that look alike come from different tables or passages of the source.

The values that follow come from paper PMC7320180, “Hydroxamic acid derivatives as HDAC1, HDAC6 and HDAC8 inhibitors with antiproliferative activity in cancer cell lines” (Scientific Reports, 2020).

One assay addresses T1, HDAC8 (Homo sapiens, UniProt Q9BY41).
T1 construct: purchased Enzo Life Sciences BML-AK518
T1 sequence (Q9BY41 1-377): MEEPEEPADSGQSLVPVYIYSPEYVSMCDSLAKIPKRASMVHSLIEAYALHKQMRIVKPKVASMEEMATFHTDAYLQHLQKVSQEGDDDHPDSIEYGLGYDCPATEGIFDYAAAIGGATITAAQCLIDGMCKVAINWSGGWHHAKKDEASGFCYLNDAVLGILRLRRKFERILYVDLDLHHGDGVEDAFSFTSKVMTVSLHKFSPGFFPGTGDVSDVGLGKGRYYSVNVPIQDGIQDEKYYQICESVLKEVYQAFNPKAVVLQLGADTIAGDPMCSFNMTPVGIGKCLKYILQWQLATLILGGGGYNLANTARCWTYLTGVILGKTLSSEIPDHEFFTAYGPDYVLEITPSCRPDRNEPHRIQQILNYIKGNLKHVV
Kind of assay: HDAC fluorometric enzymatic inhibition assay, HDAC8. Format: biochemical.

Another assay concerns MIA PaCa-2 cells. Kind of assay: MTT cytotoxicity test, MIA PaCa-2. The class given is cell-based. Conditions: Homo sapiens, MIA PaCa-2, 72 h; MTT, 3 days; read-out: IC50 (µM) MIA PaCa-2. The protocol:
(§1) All compounds were evaluated in triplicate using six points, 1/3 dilutions, with the highest concentration of 50 µM. The triplicate measurements were placed in three different 96-plates, and 1% DMSO was used as a negative control.
(§2) The first sets of […] (GH38, GH18, GH27, FH38, FH18, […] and FH37) were evaluated in different cancer cell lines: HepG2, MCF-7, SH-SY5Y, MIA PaCa-2, and […]. Furthermore, the second series of eight compounds were evaluated using seven cell lines: SH-SY5Y which is a neuroblastoma cell line; HepG2, a hepatocellular carcinoma cell line; MIA PaCa-2, a human pancreatic carcinoma cell line; MCF-7, a breast cancer cell line; HCC1954, a basal-Her2+ breast carcinoma cell line; RCC4-VA, a renal carcinoma cell line with a VHL mutation; and RCC4-VHL, a renal carcinoma cell without the VHL mutation (wild type). The cells used were seeded in 96-well plates and left for 24 h (5% CO2 and 90% humidity, 50000 cells/well) and incubated for 3 days to study the cytotoxicity.
A general note: Tetrazolium assays rely on reduction of a dye to a coloured formazan, in cell work by metabolically active cells.

The next assay concerns HepG2 cells. Kind of assay: MTT cytotoxicity test, HepG2. Format: cell-based. Conditions: Homo sapiens, HepG2, 72 h; MTT, 3 days; read-out: IC50 (µM) HepG2. The protocol: as §1, §2
The subject of the next assay is RCC4-VA cells. Kind of assay: MTT cytotoxicity test, RCC4-VA. Conditions: 72 h, 3 days. Format: cell-based. The protocol: as §1, §2
A further assay deals with HCC1954 cells. In words: MTT cytotoxicity test, HCC1954. Format: cell-based. The conditions noted are these: 3 days. The protocol:
as §1, §2

In a further assay the test system is MCF-7 cells. In words: MTT cytotoxicity test, MCF-7. Format: cell-based. Conditions: Homo sapiens, MCF7, 72 h; MTT, 3 days; read-out: IC50 (µM) MCF-7. The protocol: as §1, §2
A further assay deals with T2, HDAC1 (Homo sapiens, UniProt Q13547).
T2 construct: purchased Enzo Life Sciences BML-AK511
T2 sequence (Q13547 whole entry): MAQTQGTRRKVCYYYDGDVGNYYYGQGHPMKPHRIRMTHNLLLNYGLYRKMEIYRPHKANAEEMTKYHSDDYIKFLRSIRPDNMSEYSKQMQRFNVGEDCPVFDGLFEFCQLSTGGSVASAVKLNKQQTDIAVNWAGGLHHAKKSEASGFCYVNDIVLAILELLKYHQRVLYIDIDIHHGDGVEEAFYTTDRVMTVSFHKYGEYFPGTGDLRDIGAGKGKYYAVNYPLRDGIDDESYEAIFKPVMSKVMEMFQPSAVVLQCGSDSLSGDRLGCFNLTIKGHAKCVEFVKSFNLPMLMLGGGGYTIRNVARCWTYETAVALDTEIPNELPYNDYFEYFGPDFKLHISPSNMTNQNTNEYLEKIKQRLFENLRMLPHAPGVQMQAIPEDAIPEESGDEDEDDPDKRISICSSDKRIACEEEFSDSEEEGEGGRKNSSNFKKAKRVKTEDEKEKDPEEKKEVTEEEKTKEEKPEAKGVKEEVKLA
Kind of assay: HDAC fluorometric enzymatic inhibition assay, HDAC1. The class given is biochemical.

The test system of a further assay is SH-SY5Y cells. Kind of assay: MTT cytotoxicity test, SH-SY5Y. The class given is cell-based. Conditions: Homo sapiens, 72 h, 3 days. The protocol: as §1, §2
A further assay has as its system RCC4-VHL cells. In words: MTT cytotoxicity test, RCC4-VHL. Format: cell-based. The conditions noted are these: Homo sapiens, 72 h, 3 days. The protocol: as §1, §2
A further assay has as its target T3, HDAC6 (Homo sapiens, UniProt Q9UBN7).
T3 construct: purchased Enzo Life Sciences BML-AK516
T3 sequence (Q9UBN7 1-1215): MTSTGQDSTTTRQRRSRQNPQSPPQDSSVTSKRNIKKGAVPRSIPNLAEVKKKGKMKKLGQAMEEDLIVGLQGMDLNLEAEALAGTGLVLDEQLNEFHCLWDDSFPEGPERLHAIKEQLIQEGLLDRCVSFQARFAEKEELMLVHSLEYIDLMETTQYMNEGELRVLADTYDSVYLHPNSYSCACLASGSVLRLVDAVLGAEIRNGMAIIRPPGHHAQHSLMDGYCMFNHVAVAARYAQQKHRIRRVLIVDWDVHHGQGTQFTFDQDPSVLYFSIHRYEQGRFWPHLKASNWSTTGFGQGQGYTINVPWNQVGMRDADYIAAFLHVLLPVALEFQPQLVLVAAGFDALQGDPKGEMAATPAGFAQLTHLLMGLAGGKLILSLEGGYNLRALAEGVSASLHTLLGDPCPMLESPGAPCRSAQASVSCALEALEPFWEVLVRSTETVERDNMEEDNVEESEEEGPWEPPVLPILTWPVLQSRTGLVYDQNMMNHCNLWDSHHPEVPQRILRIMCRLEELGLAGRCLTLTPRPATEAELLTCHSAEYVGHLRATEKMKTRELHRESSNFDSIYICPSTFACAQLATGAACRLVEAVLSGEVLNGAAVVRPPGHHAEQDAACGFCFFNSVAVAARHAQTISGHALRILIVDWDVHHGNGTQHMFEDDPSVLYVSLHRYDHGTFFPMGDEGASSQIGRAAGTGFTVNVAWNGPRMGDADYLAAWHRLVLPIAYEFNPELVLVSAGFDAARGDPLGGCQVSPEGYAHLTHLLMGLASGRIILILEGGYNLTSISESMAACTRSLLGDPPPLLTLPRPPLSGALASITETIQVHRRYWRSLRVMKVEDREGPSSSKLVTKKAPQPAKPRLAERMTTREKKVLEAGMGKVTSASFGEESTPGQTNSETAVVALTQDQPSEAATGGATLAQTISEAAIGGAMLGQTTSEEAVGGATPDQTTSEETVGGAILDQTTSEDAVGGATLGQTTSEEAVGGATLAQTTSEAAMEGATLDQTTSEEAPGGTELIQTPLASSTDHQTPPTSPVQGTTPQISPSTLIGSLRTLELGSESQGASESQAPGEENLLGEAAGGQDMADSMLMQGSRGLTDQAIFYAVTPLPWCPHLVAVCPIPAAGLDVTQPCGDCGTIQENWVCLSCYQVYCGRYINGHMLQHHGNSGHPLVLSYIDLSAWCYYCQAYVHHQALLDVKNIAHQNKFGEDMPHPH
In words: HDAC fluorometric enzymatic inhibition assay, HDAC6. Format: biochemical.

A further assay concerns cancer cell lines. In words: Antiproliferative effect, cell line not stated. The conditions noted are these: second series, seven cancer cell lines. Format: cell-based. The protocol: as §1, §2

Regarding `CCCCc1ccc(C(=O)N[C@@H](Cc2cccc3ccccc23)C(=O)NO)cc1` [YSL-109, (S)-4-butyl-N-(1-(hydroxyamino)-3-(naphthalen-1-yl)-1-oxopropan-2-yl)benzamide], the IC50 on HDAC8 (read-out: IC50 (nM) HDAC8) was 2240 nM; on HDAC8 (read-out: IC50 HDAC8), 2240 nM; in the assay on MIA PaCa-2 cells it was over 50 µM; with HepG2 cells it was 3.39 µM; with RCC4-VA cells it was 24.9 µM; in the assay on HCC1954 cells it was 3.77 µM. The IC50 in the assay with HCC1954 cells (Homo sapiens, HCC1954, 72 h) was 3.41 µM; in the assay with MCF-7 cells, 3.41 µM; at HDAC1 (read-out: IC50 (nM) HDAC1) it was 259000 nM; on HDAC1 (read-out: IC50 HDAC1), 259000 nM; in the assay on SH-SY5Y cells it was 6.42 µM; in the assay with RCC4-VHL cells it was 32.7 µM. This compound returned a 50% inhibitory concentration (IC50) against HDAC6 of 0.537 nM. Further, the “selectivity for HDAC6” value at HDAC6 (HDAC6 compared with HDAC8 and HDAC1) is given as 4000 fold.
For `CCCCc1ccc(C(=O)N[C@H](C(=O)NO)c2ccccc2)cc1` [YSL-129, (S)-4-butyl-N-(2-(hydroxyamino)-2-oxo-1-phenylethyl)benzamide], the IC50 is over 50 µM in the assay on MIA PaCa-2 cells; over 50 µM in the assay with HepG2 cells; over 50 µM with RCC4-VA cells; over 50 µM in the assay with HCC1954 cells (Homo sapiens, HCC1954, 72 h); over 50 µM with MCF-7 cells; over 50 µM in the assay on SH-SY5Y cells. In addition, the IC50 in the assay on RCC4-VHL cells was over 50 µM. The biological activity entry with cancer cell lines was “did not show biological activity”.
